Measured values as given in PMC8343220, “The selectivity of α‐adrenoceptor agonists for the human α1A, α1B, and α1D‐adrenoceptors” (Pharmacology Research & Perspectives, 2021).

Experiments:
[1] = target: T1, human α1D‐adrenoceptor (full length) (Homo sapiens, UniProt P25100); assay: ERK1/2‐phosphorylation (Surefire Alphascreen), CHO‐α1D cells; assay type: cell-based
T1 construct: human α1D‐adrenoceptor (full length) were used; expressed in transfected cells; host or cells: CHO-K1
T1 sequence (P25100 1-572): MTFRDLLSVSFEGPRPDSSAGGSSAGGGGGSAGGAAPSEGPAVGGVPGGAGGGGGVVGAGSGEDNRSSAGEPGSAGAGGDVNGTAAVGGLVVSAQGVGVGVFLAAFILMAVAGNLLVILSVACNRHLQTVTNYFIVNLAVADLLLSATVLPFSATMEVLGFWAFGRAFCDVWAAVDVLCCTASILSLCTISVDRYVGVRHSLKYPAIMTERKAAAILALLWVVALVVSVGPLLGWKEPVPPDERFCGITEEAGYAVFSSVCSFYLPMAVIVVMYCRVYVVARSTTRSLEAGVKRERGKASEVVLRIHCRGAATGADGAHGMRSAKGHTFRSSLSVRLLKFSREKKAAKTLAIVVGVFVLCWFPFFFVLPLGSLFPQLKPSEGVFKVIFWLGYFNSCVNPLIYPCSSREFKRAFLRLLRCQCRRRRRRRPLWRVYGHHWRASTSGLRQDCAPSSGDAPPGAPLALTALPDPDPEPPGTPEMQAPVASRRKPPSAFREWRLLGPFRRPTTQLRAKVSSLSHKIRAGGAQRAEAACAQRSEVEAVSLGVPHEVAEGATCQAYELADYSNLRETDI

human α1B‐adrenoceptor [2] = target: T2, human α1B‐adrenoceptor (Homo sapiens, UniProt P35368); assay: ERK1/2‐phosphorylation (Surefire Alphascreen), CHO‐α1B cells; assay type: cell-based
T2 construct: expressed in transfected cells; host or cells: CHO-K1
T2 sequence (P35368 1-520): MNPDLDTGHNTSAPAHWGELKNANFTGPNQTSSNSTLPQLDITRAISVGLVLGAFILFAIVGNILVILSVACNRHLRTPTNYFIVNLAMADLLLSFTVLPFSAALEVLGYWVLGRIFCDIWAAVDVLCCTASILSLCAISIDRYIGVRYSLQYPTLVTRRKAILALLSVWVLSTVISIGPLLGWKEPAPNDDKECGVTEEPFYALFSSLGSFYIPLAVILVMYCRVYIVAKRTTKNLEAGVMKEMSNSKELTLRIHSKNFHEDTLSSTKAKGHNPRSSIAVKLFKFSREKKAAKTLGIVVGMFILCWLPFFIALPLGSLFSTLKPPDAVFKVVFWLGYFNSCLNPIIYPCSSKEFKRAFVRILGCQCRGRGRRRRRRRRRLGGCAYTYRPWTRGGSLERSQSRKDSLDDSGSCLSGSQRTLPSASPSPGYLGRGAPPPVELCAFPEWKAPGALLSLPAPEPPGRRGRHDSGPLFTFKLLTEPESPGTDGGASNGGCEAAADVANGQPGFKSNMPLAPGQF

human α1A‐adrenoceptor [3] = target: T3, human α1A‐adrenoceptor (Homo sapiens, UniProt P35348); assay: Intracellular free calcium mobilization, CHO‐α1A cells; assay type: cell-based
T3 construct: expressed in transfected cells; host or cells: CHO-K1
T3 sequence (P35348 1-466): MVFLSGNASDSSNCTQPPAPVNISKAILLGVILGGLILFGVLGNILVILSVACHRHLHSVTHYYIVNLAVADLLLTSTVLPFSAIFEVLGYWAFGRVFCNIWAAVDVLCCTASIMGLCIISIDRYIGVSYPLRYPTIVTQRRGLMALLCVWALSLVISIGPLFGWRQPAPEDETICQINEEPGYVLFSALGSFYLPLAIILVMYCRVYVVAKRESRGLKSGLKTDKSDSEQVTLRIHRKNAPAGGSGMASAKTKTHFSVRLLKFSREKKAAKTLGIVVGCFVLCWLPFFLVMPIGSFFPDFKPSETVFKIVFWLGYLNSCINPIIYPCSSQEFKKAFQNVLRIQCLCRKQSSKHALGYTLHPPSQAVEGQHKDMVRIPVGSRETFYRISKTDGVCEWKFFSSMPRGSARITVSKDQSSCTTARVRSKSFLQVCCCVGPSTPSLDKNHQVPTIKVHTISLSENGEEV

human α1A‐adrenoceptor [4] = target: T3, human α1A‐adrenoceptor; assay: ERK1/2‐phosphorylation (Surefire Alphascreen), CHO‐α1A cells; assay type: cell-based
[5] = target: T1, human α1D‐adrenoceptor (full length); assay: Intracellular free calcium mobilization, CHO‐α1D cells; assay type: cell-based
human α1A‐adrenoceptor [6] = target: T3, human α1A‐adrenoceptor; assay: ^3H‐cAMP accumulation, CHO‐α1A cells; assay type: cell-based; details: CHO‐α1A cells
human α1A‐adrenoceptor [7] = target: T3, human α1A‐adrenoceptor; assay: ^3H‐cAMP accumulation in the presence of 10 μM forskolin, CHO‐α1A cells; assay type: cell-based; details: CHO‐α1A cells; 10 μM forskolin
human α1B‐adrenoceptor [8] = target: T2, human α1B‐adrenoceptor; assay: ^3H‐cAMP accumulation in the presence of 10 μM forskolin, CHO‐α1B cells; assay type: cell-based; details: CHO‐α1B cells; in presence of forskolin
human α1B‐adrenoceptor [9] = target: T2, human α1B‐adrenoceptor; assay: ^3H‐prazosin whole‐cell radioligand binding, CHO‐α1B cells
human α1B‐adrenoceptor [10] = target: T2, human α1B‐adrenoceptor; assay: Intracellular free calcium mobilization, CHO‐α1B cells; assay type: cell-based
human α1A‐adrenoceptor [11] = target: T3, human α1A‐adrenoceptor; assay: ^3H‐prazosin whole‐cell radioligand binding, CHO‐α1A cells
human α1B‐adrenoceptor [12] = target: T2, human α1B‐adrenoceptor; assay: ^3H‐cAMP accumulation, CHO‐α1B cells; assay type: cell-based; details: CHO‐α1B cells
[13] = target: T1, human α1D‐adrenoceptor (full length); assay: ^3H‐prazosin whole‐cell radioligand binding, CHO‐α1D cells
[14] = tested on: parental CHO cell line without any transfected receptors; assay: Intracellular calcium mobilization, parent CHO cells without transfected receptors; assay type: cell-based, Chinese hamster

Nc1cc(Cl)c(N=C2NCCN2)c(Cl)c1 [para‐amino‐clonidine]
ERK1/2‐phosphorylation % PDBu [1]: No response
ERK1/2‐phosphorylation % PDBu (human α1B‐adrenoceptor [2]): 32.8 ± 6.9%
Intracellular calcium release % ionomycin (human α1A‐adrenoceptor [3]): 52.0 ± 2.8%
Intracellular calcium release Log EC50 (human α1A‐adrenoceptor [3]): −8.70 ± 0.09
ERK1/2‐phosphorylation % PDBu (human α1A‐adrenoceptor [4]): 84.5 ± 4.9%
Intracellular calcium release % ionomycin [5]: No response
Intracellular calcium release Log EC50 [5]: No response
cAMP accumulation Log EC50 (human α1A‐adrenoceptor [6]; 5 h): −6.76 ± 0.03
cAMP accumulation % forskolin (human α1A‐adrenoceptor [6]; % of 10 µM forskolin response): 26.6 ± 3.2%
cAMP accumulation (in presence of forskolin) Log EC50 (human α1A‐adrenoceptor [7]): −7.36 ± 0.05
cAMP accumulation (in presence of forskolin) Log EC50 (human α1B‐adrenoceptor [8]): −7.31 ± 0.11
Log KD α1B, ^3H‐prazosin whole cell binding (human α1B‐adrenoceptor [9]): −5.17 ± 0.06
Log KD, ^3H‐prazosin binding (human α1B‐adrenoceptor [9]): −5.17
Intracellular calcium release % ionomycin (human α1B‐adrenoceptor [10]): 33.7 ± 2.4%
Intracellular calcium release Log EC50 (human α1B‐adrenoceptor [10]): −7.79 ± 0.05
Log KD α1A, ^3H‐prazosin whole cell binding (human α1A‐adrenoceptor [11]): −6.23 ± 0.03
cAMP accumulation Log EC50 (human α1B‐adrenoceptor [12]): −7.48 ± 0.43
cAMP accumulation % forskolin (human α1B‐adrenoceptor [12]; % forskolin maximum response): 2.5 ± 0.6%
3H‐prazosin binding Log KD [13]: −5.39
Log KD α1D, ^3H‐prazosin whole cell binding [13]: −5.39 ± 0.16

C[C@H](CCC(=O)O)C[C@H](C)C[C@H](C)C(=O)/C=C(\O)[C@H](C)C[C@H](C)C/C=C/[C@@H](C)[C@@H](O)[C@@H](C)[C@@H](O)C[C@@H]1CC[C@@](C)([C@H]2CC[C@@](C)([C@@H](C)O)O2)O1 [Ionomycin]
Calcium response fold over basal [14]: 27.2 ± 1.2 fold over basal
